Experimental data from ChEMBL document CHEMBL1201862, “PubChem BioAssay data set” (2004).
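A five-concentration, 48-hour dose response in 96-well plates underlies each endpoint, interpolated linearly between surrounding concentrations. The concentration for 50% growth inhibition is given as GI50.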 The source made the active and inactive calls. Cut-off read from the data, not from the text of the source: active = GI50 up to about 1.1 µM and inactive = higher.

Columns and labels:
Assay in all cases: NCI-60 cell line screen, 48 h
NCI-H460 = test system: NCI-H460
UO-31 = test system: UO-31
OVCAR-4 = test system: OVCAR-4
EKVX = test system: EKVX
M14 = test system: M14
OVCAR-5 = test system: OVCAR-5
UACC-62 = test system: UACC-62
HCT-15 = test system: HCT-15
SNB-75 = test system: SNB-75
MCF7 = test system: MCF7
SF-268 = test system: SF-268
HT-29 = test system: HT-29
SF-539 = test system: SF-539
A498 = test system: A498
BT-549 = test system: BT-549
MDA-MB-435 = test system: MDA-MB-435
786-0 = test system: 786-0
SR = test system: SR
RXF 393 = test system: RXF 393
U-251 = test system: U-251

Row | SMILES | GI50 (NCI-H460) | GI50 (UO-31) | GI50 (OVCAR-4) | GI50 (EKVX) | GI50 (M14) | GI50 (OVCAR-5) | GI50 (UACC-62) | GI50 (HCT-15) [µM] | GI50 (SNB-75) | GI50 (MCF7) | GI50 (SF-268) | GI50 (HT-29) | GI50 (SF-539) | GI50 (A498) | GI50 (BT-549) | GI50 (MDA-MB-435) | GI50 (786-0) | GI50 (SR) | GI50 (RXF 393) | GI50 (U-251)
1 | C=C1C(=O)O[C@@H]2[C@H]1C[C@H](I)[C@@]1(C)CC[C@H](O1)[C@](C)(I)CCCC(C)[C@@H]2O (stereo not given in full) | 14.5 µM (inactive) | 3.66 µM (inactive) | 6.32 µM (inactive) | 8.95 µM (inactive) | 4.68 µM (inactive) | 8.69 µM (inactive) | 4.92 µM (inactive) | 1.76 | 2.33 µM (inactive) | 2.29 µM (inactive) | 12.6 µM (inactive) | 1.93 µM (inactive) | 2.02 µM (inactive) | 14.6 µM (inactive) | 7.23 µM (inactive) | 4.9 µM (inactive) | 1.49 µM (inactive) | 2 µM (inactive) | 1.69 µM (inactive) | 6.07 µM (inactive)
2 | CC(Oc1ccc(Cl)cc1Cl)C(=O)NN1C(=O)CC(=O)N(c2ccccc2)C1=S (stereo not given) | 62.8 µM (inactive) | 64.7 µM (inactive) | 45.8 µM (inactive) | 69.5 µM (inactive) | 73.3 µM (inactive) | > 100 µM (inactive) | 37.5 µM (inactive) | 38.2 | 54.1 µM (inactive) | 35.5 µM (inactive) | 95.1 µM (inactive) | 70.1 µM (inactive) | > 100 µM (inactive) | 26.9 µM (inactive) | 59.6 µM (inactive) | 41.9 µM (inactive) | 60.3 µM (inactive) | 4.67 µM (inactive) | 41 µM (inactive) | 41.9 µM (inactive)
3 | N#Cc1c(C#N)c(-c2ccco2)n(/N=C/c2ccco2)c1N | > 100 µM (inactive) | > 100 µM (inactive) | 76.9 µM (inactive) | 20.1 µM (inactive) | > 100 µM (inactive) | > 100 µM (inactive) | > 100 µM (inactive) | 29.6 | 7.29 µM (inactive) | 6.5 µM (inactive) | 28.2 µM (inactive) | > 100 µM (inactive) | 23.9 µM (inactive) | 27.6 µM (inactive) | 22.8 µM (inactive) | > 100 µM (inactive) | 33.2 µM (inactive) | 26.1 µM (inactive) | 19.9 µM (inactive) | 24.6 µM (inactive)
4 | Nc1ncn(C/C=C/c2ccccc2)c2ncnc1-2 | > 100 µM (inactive) | > 100 µM (inactive) | > 100 µM (inactive) | 32.4 µM (inactive) | > 100 µM (inactive) | > 100 µM (inactive) | > 100 µM (inactive) | > 100 | 70.3 µM (inactive) | > 100 µM (inactive) | > 100 µM (inactive) | 50.9 µM (inactive) | > 100 µM (inactive) | 75.3 µM (inactive) | > 100 µM (inactive) | > 100 µM (inactive) | > 100 µM (inactive) | 21.4 µM (inactive) | > 100 µM (inactive) | > 100 µM (inactive)
5 | O=C1Oc2ccccc2C1C/C(=N\Nc1ccccc1)c1ccccc1O (stereo not given) | 34.4 µM (inactive) | 23.3 µM (inactive) | 32.7 µM (inactive) | 26.5 µM (inactive) | 50.8 µM (inactive) | > 100 µM (inactive) | 33.9 µM (inactive) | 34.3 | 56.8 µM (inactive) | 36.5 µM (inactive) | 25.7 µM (inactive) | 28.4 µM (inactive) | 53 µM (inactive) | 33.7 µM (inactive) | 28.6 µM (inactive) | 27.2 µM (inactive) | 36.1 µM (inactive) | 27.4 µM (inactive) | 53.7 µM (inactive) | 40.3 µM (inactive)
6 | C/C(=N/NC(=S)Nc1ccccc1Cl)c1ccccn1 | 0.0382 µM (active) | 0.583 µM (active) | 0.249 µM (active) | 0.098 µM (active) | < 0.0211 µM (active) | < 0.0211 µM (active) | 0.173 µM (active) | < 0.0165 | 8.73 µM (inactive) | < 0.0119 µM (active) | 0.0843 µM (active) | < 0.01 µM (active) | 1.11 µM (active) | 1.46 µM (inactive) | 4.39 µM (inactive) | 0.665 µM (active) | 0.0889 µM (active) | < 0.0139 µM (active) | 1.41 µM (inactive) | 0.0418 µM (active)
7 | O=C(CC1(O)C(=O)Nc2c(Cl)cc(Cl)cc21)c1ccc(Br)cc1Br (stereo not given) | 16 µM (inactive) | 16 µM (inactive) | 12.2 µM (inactive) | 19 µM (inactive) | 5.96 µM (inactive) | 17.7 µM (inactive) | 12.9 µM (inactive) | 8.57 | 18.1 µM (inactive) | 13.2 µM (inactive) | 8.17 µM (inactive) | 17.7 µM (inactive) | 14.6 µM (inactive) | 22.1 µM (inactive) | 10.5 µM (inactive) | 12.8 µM (inactive) | 11.3 µM (inactive) | 1.56 µM (inactive) | 11.7 µM (inactive) | 13.1 µM (inactive)
8 | CC12CN(CC[N+](C)(C)C)CC1(C)C1CCC2O1 (stereo not given) | > 100 µM (inactive) | > 100 µM (inactive) | > 100 µM (inactive) | > 100 µM (inactive) | > 100 µM (inactive) | > 100 µM (inactive) | > 100 µM (inactive) | > 100 | > 100 µM (inactive) | > 100 µM (inactive) | > 100 µM (inactive) | > 100 µM (inactive) | > 100 µM (inactive) | > 100 µM (inactive) | > 100 µM (inactive) | > 100 µM (inactive) | > 100 µM (inactive) | > 100 µM (inactive) | > 100 µM (inactive) | > 100 µM (inactive)
9 | C=C(C)C(=O)OC1CC2=CC(CC3(C)OC3C3OC(=O)C(=C)C13)OC2=O (stereo not given) | 17.9 µM (inactive) | 13.1 µM (inactive) | 12.6 µM (inactive) | 15 µM (inactive) | 4.41 µM (inactive) | 20 µM (inactive) | 9.18 µM (inactive) | 8.07 | 14.7 µM (inactive) | 3.81 µM (inactive) | 20.7 µM (inactive) | 6.97 µM (inactive) | 10.9 µM (inactive) | 16.6 µM (inactive) | 11.8 µM (inactive) | 15.2 µM (inactive) | 7.24 µM (inactive) | 2.51 µM (inactive) | 2.9 µM (inactive) | 17.4 µM (inactive)
